Results: ChEMBL document CHEMBL1157081, “HPLC-based activity profiling for GABA(A) receptor modulators: a new dihydroisocoumarin from Haloxylon scoparium” (J Nat Prod, 2010)
The source made the active and inactive calls. The calls are words filed in the database; no cut-off is given here.

Columns and labels:
[1] = Allosteric modulation at GABA A receptor alpha-1-beta-2-gamma-2S expressed in Xenopus oocytes assessed as enhancement of GABA-induced chloride current; assay type: cell-based; conditions: Oocyte
[2] = test system: Oocyte; experiment: Allosteric modulation at GABA A receptor alpha-1-beta-2-gamma-2S expressed in Xenopus oocytes assessed as enhancement of GABA-induced chloride current at >=3 uM; assay type: cell-based
[3] = test system: Oocyte; experiment: Allosteric modulation at GABA A receptor alpha-1-beta-2-gamma-2S expressed in Xenopus oocytes assessed as enhancement of GABA-induced chloride current at 500 uM; assay type: cell-based
[4] = test system: Oocyte; experiment: Agonist activity at GABA A receptor alpha-1-beta-2-gamma-2S expressed in Xenopus oocytes assessed as enhancement of chloride current at 500 uM; assay type: functional, cell-based

CC1(C)C2CCC1(C)C(O)C2 (racemic) [BORNEOL]
EC50 [1]: 237 µM

COc1c2c(cc3c1C(=O)O[C@H](c1ccccc1)C3)OCO2
Activity [2]: Active | Activity [3]: 145% | EC50 [1]: 140 µM | Activity [4]: inactive

CC(C)=CCC[C@](C)(O[C@@H]1O[C@H](CO[C@@H]2O[C@@H](CO)[C@H](O)[C@H]2O)[C@@H](O)[C@H](O)[C@H]1O)[C@H]1CC[C@]2(C)[C@@H]1[C@H](O)C[C@@H]1[C@@]3(C)CC[C@H](O[C@@H]4O[C@H](CO)[C@@H](O)[C@H](O)[C@H]4O[C@@H]4O[C@H](CO)[C@@H](O)[C@H](O)[C@H]4O)C(C)(C)[C@@H]3CC[C@]12C [GINSENOSIDE RC]
EC50 [1]: 53.2 µM
